Results: patent US7786128B2, “Indole or benzimidazole derivatives as CB1 inverse agonists” (Hoffmann-La Roche Inc., priority 2004, dated 2010)
Like-named read-outs stand apart in the source and are kept apart here.

Key:
[1] = biological target: T1, human cannabis CB1 receptor (Homo sapiens, UniProt P21554); experiment: Affinity for cannabinoid CB1 receptors, [3H]-CP-55,940 radioligand binding on HEK cell membranes
T1 construct: expressed in transfected cells; host or cells: human embryonic kidney (HEK) cells, Semliki Forest Virus system
Procedure: The affinity of the compounds of the invention for cannabinoid CB1 receptors was determined using membrane preparations of human embryonic kidney (HEK) cells in which the human cannabis CB1 receptor is transiently transfected using the Semliki Forest Virus system in conjunction with [3H]-CP-55,940 as radioligand. After incubation of a freshly prepared cell membrane preparation with the [3H]-ligand, with or without addition of compounds of the invention, separation of bound and free ligand was performed by filtration over glassfiber filters. Radioactivity on the filter was measured by liquid scintillation counting.
The compounds of formula (I) show an excellent affinity for the CB1 receptor, determined with the experimental conditions described in Devane et. al. Mol. Pharmacol. 34 (1988) 605-613.

[2] = doses of 5, 10 and 20 mg daily; cited from earlier work
[3] = wild-type versus CB1 receptor knockout mice; cited from earlier work
[4] = affinity for the CB1 receptor, HEK membranes, [3H]-CP-55,940, read-out: IC50

T1 sequence (P21554 whole entry): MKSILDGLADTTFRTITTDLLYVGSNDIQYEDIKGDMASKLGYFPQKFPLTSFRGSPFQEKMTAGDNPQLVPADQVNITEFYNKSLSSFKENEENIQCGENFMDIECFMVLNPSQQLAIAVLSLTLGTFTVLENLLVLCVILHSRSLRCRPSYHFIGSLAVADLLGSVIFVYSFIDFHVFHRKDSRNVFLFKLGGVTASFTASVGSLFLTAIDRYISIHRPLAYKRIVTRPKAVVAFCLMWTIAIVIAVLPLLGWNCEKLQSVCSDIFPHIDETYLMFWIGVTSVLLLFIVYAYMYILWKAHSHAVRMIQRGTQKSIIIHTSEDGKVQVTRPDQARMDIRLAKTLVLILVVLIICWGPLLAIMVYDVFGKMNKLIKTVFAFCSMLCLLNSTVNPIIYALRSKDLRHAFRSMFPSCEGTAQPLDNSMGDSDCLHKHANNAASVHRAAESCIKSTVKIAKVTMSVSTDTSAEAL

CC(Oc1ccccc1)c1nc2ccc(N3CCN(S(=O)(=O)N(C)C)CC3)cc2n1Cc1ccc(Cl)cc1 (centres unmarked) [Example 51, 4-[3-(4-chloro-benzyl)-2-(1-phenoxy-ethyl)-3H-benzoimidazol-5-yl]-piperazine-1-sulfonic acid dimethylamide]
IC50 [1]: 60 nM

CCCCNC(=O)c1ccc2c(c1)nc(COc1ccccc1)n2Cc1ccc(OC(F)(F)F)cc1 [Example 61, 2-Phenoxymethyl-1-(4-trifluoromethoxy-benzyl)-1H-benzoimidazole-5-carboxylic acid butyl-amide]
IC50 [1, 4]: 30 nM

CCCCNC(=O)c1ccc2c(c1)cc(COc1ccccc1)n2Cc1ccc(OC(F)(F)F)cc1 [Example 101, 2-phenoxymethyl-1-(4-trifluoromethoxy-benzyl)-1H-indole-5-carboxylic acid butylamide]
IC50 [1, 4]: 20 nM

Cc1c(C(=O)NN2CCCCC2)nn(-c2ccc(Cl)cc2Cl)c1-c1ccc(Cl)cc1 [SR 141716]
body weight compared to placebo [2]: significantly reduced body weight
food intake [3]: reduces food intake in wild-type but not knockout mice
